This note sets out measurements from US12685775B2, “Oligonucleotides with nucleoside analogs” (Sirnaomics, Inc., priority 2019, dated 2026).

Entries after “also recorded” stand apart in the source; their conditions may differ. Read-outs that look alike come from different tables or passages of the source.

Common to all, as to type: cell-based
Series [1] concerns BxPC3 cells. Description: BxPC3 cell viability after 72 hrs treatment, CTG2 reagent (Example 1). The conditions noted are these: Homo sapiens, BXPC-3, BxPC3, 72 h. How it is done: BxPC3 cells were seeded in two 384-well plates at 500 cells/well. On the next day cells were treated with various concentrations of CID2A, CID2S, CID4 siRNAs (formulated with Lipofectamine RNAiMAX) or gemcitabine (0.1-1000 nM) for 72 hrs. After incubation at 37° C. for 72 hrs, the number of viable cells was assessed using CTG2 reagent. Non-treated cells were set as 100%.

Series [2] has as its system BxPC3 cells. Briefly: BxPC3 cell viability 96 h after transfection/treatment, Cell Titer Glo (Examples 2 and 3). The conditions noted are these: for IC50: read-out: IC50, inhibition of cell viability; for inhibition in cell viability at 0.1 nM: BxPC3, 0.1 nM, GEM-modified siRNAs. How it is done:
(§1) Pancreatic cancer BxPC3 cells were seeded at 1000 cells/ml and grown as monolayers in 384 well plates. The cells were transfected with the siRNAs indicated against CHK1 or Rad17 using Lipofectamine (ThermoFisher) or were treated with gemcitabine at the concentrations indicated on the X axis. After a 96 h incubation at 37° C. with 5% CO2, cell viability was determined using Cell Titer Glo (Perkin Elmer) by monitoring the luminescence signal produced by the reagent in a Perkin Elmer Envision plate reader equipped with Ultrasensitive luminescence detection optics. From the figure we can see that gemcitabine (GEM) produces a dose-dependent inhibition of cell viability with an IC50 of ~6 nM and maximal efficacy of >80% cell killing. A 25mer blunt ended siRNA against RAD17 produced a dose dependent inhibition in cell viability with a maximum efficacy at only 60% reduction in cell viability and an IC50 of ~5 nM. […] The IC50 for the latter siRNA was similar to that for the Azorsa sequence (~0.3 nM).
SiRNAs were synthesized with gemcitabine nucleotide amidites added at the 3′ end of each of the Sense strands for the siRNA sequences indicated. SiRNAs were transfected into the cells and incubated as detailed in FIG. 1. Maximal efficacy of all sequences was now improved to >95% inhibition of cell viability at concentrations above 10 nM. […] The gemcitabine nucleotides was examined to see if it could replace the Cytidine nucleotides within the siRNA sequence. […] FIGS. 12a-12d show the effect of adding 2 gemcitabine nucleotides at the 3′ end of the Sense strand of each siRNA on potency and efficacy.
Background: In ATP-based viability assays light output follows the ATP content of the culture.

In series [3] the test system is BxPC3 cells. Briefly: BxPC3 cell viability after 120 h exposure, Cell Titer Glo (Example 4, polyGEM constructs). How it is done:
BxPC3 cells seeded in 384 well plates at 1000 cells/well were transfected with siRNA constructs or exposed to gemcitabine at the concentrations indicated in the figure. The samples tested were gemcitabine alone (GEM), the unmodified 19mer siRNA against CHK1 (CHK-AZ) and the same sequences of the siRNA but with either 2 (poly-2), 4 (poly-4) or 6 (poly-6) gemcitabine nucleotides added at the 3′ end of the Sense strand prior to annealing with the same antisense strand. After 120 h exposure to the various agents, the cell viability was determined by addition of Cell Titer Glo (PE), plates were shaken for 10-20 mins and then luminescence signal correlating with cell viability was determined in a PE Envision plate reader.
It was reasoned that, since such an improvement in efficacy against pancreatic cancer cell viability was obtained when adding 2 GEM nucleotides onto the SS of an siRNA, then adding additional GEMs would further improve the efficacy and/or potency of the siRNAs. To this end the unmodified 19mer siRNA (CHK-AZ) was compared with the same sequence where 2Gems were added at the 3′ end of the SS (poly-2), 4GEMs were added (poly-4) or 6 GEMs were added (poly-6). These sequences were compared with gemcitabine alone (GEM). The experiment was performed by transfection of the siRNAs in BxPC3 cells as for FIG. 1 but the exposure time prior to measurement of cell viability was 120 h. […]

In series [4] the test system is BxPC3 pancreatic cancer cell. Briefly: cells. The settings on record: for IC50: BxPC3, 120 h exposure, read-out: IC50, cell viability. How it is done: The siRNA sequences shown in Table 2 were tested for efficacy and potency against BxPC3 pancreatic cancer cell viability after 120 h exposure.
Another series concerns MiaPaca-2. Briefly: MiaPaca-2 cell viability, 96 h exposure (Examples 8 and 9). The conditions noted are these: for maximal inhibition of cell viability: 96 h. How it is done:
as §1
Using gemcitabine or the same unmodified siRNAs and exposure time (96 h) as used against BxPC3 cells (FIG. 1), we studied the effect on another pancreatic cancer cell line—MiaPaca-2.

Series [5] deals with BxPC3 cells. Briefly: Screen of siRNA sequences designed against CHK1: % viable cells 72 h after transfection, BxPC3. How it is done:
(§2) The percentage of viable cells 72 h after transfection of the siRNA sequences into cells in culture is shown (top panel—BxPC3 cells; lower panel—CFPAC cells). 100% viability is defined as that in the presence of a NON-silencing control siRNA (NS). CHK1_AZ (AZ) was tested as a comparator. CD=Cell Death siRNAs—known to produce maximal killing of many cell types when transfected into cells.

Another series concerns CFPAC cells. Description: Screen of siRNA sequences designed against CHK1: % viable cells 72 h after transfection, CFPAC. The procedure: as §2
In a further series the test system is CHK1. Briefly: siRNA validation of target silencing (qRTPCR). The settings on record: previous studies. How it is done: These experiments were performed using the siRNAs shown below. The degree of gene target silencing was measured in cells transfected with the siRNAs at (50 nM) and the degree of gene silencing was measured using qRTPCR (using Beta-actin as a control housekeeping gene for normalization of the data).
(In qPCR the cycle at which signal appears reflects the starting amount.)

As a reminder, the viability is a read-out of living cells in per cent, often relative to untreated cells. Higher therefore signals less harm to the cells. In general, IC50 refers to the point on the concentration scale where inhibition reaches its midpoint. What is called inhibition is the drop in the measured response relative to a control, in per cent. In the series with BxPC3 cells [1] (50 nM), `Nc1ccn([C@@H]2O[C@H](CO)[C@@H](O)C2(F)F)c(=O)n1` [gemcitabine, 2′,2′-difluoro 2′-deoxycytidine, reference compound] displayed a viability at 0.05 µM of 26%. The IC50 in the series with BxPC3 cells [1] (no Lipofectamine, read-out: IC50, reduction in cell viability) was approximately 7 nM; with BxPC3 cells [2] (Homo sapiens, BXPC-3, BxPC3, 96 h) it was approximately 6 nM; with BxPC3 cells [3] (Homo sapiens, BXPC-3, BxPC3, 120 h exposure), 3 nM; in series [4] (Homo sapiens, BXPC-3), approximately 5 nM. Further, in the series on BxPC3 cells [2] (BxPC3, 96 h), the “maximal efficacy (reduction/inhibition of cell viability, cell killing)” value is more than 80%. For the same compound, the “reduction in cell viability at concentrations above 50 nM” value in the series with BxPC3 cells [3] (BxPC3, 120 h, >50 nM) was 100%. For the same compound, the “maximal efficacy, inhibition of cell viability” value in series [4] (human, 120 h, 100 nM) is ~ 85%. Besides, the inhibition at 0.1 µM with MiaPaca-2 (Homo sapiens, MIA PaCa-2, 100 nM, read-out: maximal inhibition at 100 nM) came to 90%.

Regarding “CHK_4: siRNA designed against CHK1, sense strand CCTGTGGAATAGTACTTACTGCAAT (SEQ ID NO: 9); same sequence as SLP49-1 (antisense strand not cited, further chemistry not given here)”, the “potency on BxPC3 cell viability” value in the series with BxPC3 cells [5] is given as “most potent effect; also recorded: greater potency than CHK-AZ”; in the series with BxPC3 cells [5] (listed as #4) it was “#4 sequence CCTGTGGAATAGTACTTACTGCAAT (SEQ ID NO: 9) seemed to be the best”. In addition, the “% viable BxPC3 cells at 72 h” value in the series with BxPC3 cells [5] (100% = non-silencing control siRNA) amounted to 24%. Besides, the “effect on CFPAC cell viability” value in the series with CFPAC cells is given as “very pronounced effect on cell viability”. In the series on CHK1, the “silencing of CHK1 gene” value is recorded as “better silencing than the Azorsa sequence”.

“SLP49-1: Unmodified 25mer blunt ended CHK1 siRNA, sense CCUGUGGAAUAGUACUUACUGCAAU (SEQ ID NO: 18) (antisense AUUGCAGUAAGUACUAUUCCACAGG; unmodified RNA)”: the “inhibition of cell viability at 100 nM” value with BxPC3 cells [2] (BxPC3, 96 h, 100 nM) was ~ 90%. The IC50 in the series with BxPC3 cells [2] (BxPC3, 96 h) is approximately 0.3 nM; in series [4], 0.25 nM. Also, in series [4] (BxPC3, 120 h, 100 nM), the “Efficacy at 100 nM” value turned out to be 90%. In addition, the “maximal inhibition of cell viability” value in the series with MiaPaca-2 (listed as 25mer blunt ended siRNA designed against CHK1) is ~ 80%; in the series with MiaPaca-2 (listed as Chk1_de), 80%.

For the compound “SLP49-2: 25mer CHK1 siRNA with 2 GEMs attached at the 3′ end of the Sense Strand (SEQ ID NO: 19) (sense CCUGUGGAAUAGUACUUACUGCAAUCC; antisense AUUGCAGUAAGUACUAUUCCACAGG; 25mer siRNA, two gemcitabine nucleotides added at sense strand 3' end, further chemistry not given here)”, the “inhibition in cell viability at 0.1 nM” value in the series on BxPC3 cells [2] is listed as 31%. In addition, the “efficacy (inhibition of cell viability / cell killing) at 30 nM” value in series [4] is ~ 100%. The “maximal inhibition at 10 nM” value with MiaPaca-2 (10 nM) is ~ 100%.

For “SLP49-3: Unlabeled 25mer blunt ended siRNA against RAD17, sense CCAACAAUUAUGAUGAAAUUUCUUA (SEQ ID NO: 23) (antisense UAAGAAAUUUCAUCAUAAUUGUUGG; further chemistry not given here)”, the “maximal efficacy (reduction/inhibition of cell viability, cell killing)” value with BxPC3 cells [2] (BxPC3, 96 h) is 60%; in the series with BxPC3 cells [2] (BxPC3, 96 h, listed as RAD17 siRNA), ~ 60%. The concentration for half-maximal inhibition (IC50) is approximately 5 nM with BxPC3 cells [2] (BxPC3, 96 h) and approximately 4 nM in series [4]. Also, in series [4], the “maximal efficacy, inhibition of cell viability” value stood at 60%. In addition, the “maximal inhibition of cell viability” value in the series on MiaPaca-2 (listed as RAD17 siRNA) is listed as ~ 30%; in the series with MiaPaca-2 (listed as unmodified 25mer siRNA targeting RAD17), ~ 25%.

As to “SLP49-4: RAD17 25mer siRNA with 2 additional GEMs attached at the 3′ end of the SS (SEQ ID NO: 24) (sense CCAACAAUUAUGAUGAAAUUUCUUACC; antisense UAAGAAAUUUCAUCAUAAUUGUUGG; 25mer siRNA, two gemcitabine nucleotides added at sense strand 3' end, further chemistry not given here)”, in the series on BxPC3 cells [2], the “inhibition in cell viability at 0.1 nM” value is listed as “no effect on cell viability”. Further, in series [4], the “efficacy (inhibition of cell viability / cell killing) at 30 nM” value was determined as 100% and the half-maximal inhibitory concentration (IC50) is approximately 4 nM. Also, the “inhibition at 30 nM” value with MiaPaca-2 (30 nM) is listed as 93%.

As for “SLP49-5: CHK1 siRNA, SS shortened by first 2 bases, 3 GEMs in place of Cs (SEQ ID NO: 20) (sense UGUGGAAUAGUACUUACUGCAAU; antisense AUUGCAGUAAGUACUAUUCCACAGG; three gemcitabines replace cytidines in sense strand, positions not given here)”, in series [4], the “efficacy (inhibition of cell viability / cell killing) at 30 nM” value was 83-97% and the IC50 was approximately 3 nM.

As to “SLP49-6: CHK1 siRNA, SS shortened by first 2 bases, containing 2 Gems (SEQ ID NO: 21) (sense UGUGGAAUAGUACUUACUGCAAUCC; antisense AUUGCAGUAAGUACUAUUCCACAGG; sense strand contains two gemcitabines, positions not given here, further chemistry not given here)”, in series [4], the “efficacy (inhibition of cell viability / cell killing) at 30 nM” value was 83-97% and the 50% inhibitory concentration (IC50) was approximately 3 nM.
